Results on two compounds are retold here after ChEMBL document CHEMBL1135763, “Discovery of aminothiazole inhibitors of cyclin-dependent kinase 2: synthesis, X-ray crystallographic analysis, and biological activities” (J Med Chem, 2002).

In test [1] the target is Cyclin-dependent kinase 1/cyclin B (Homo sapiens, UniProt P06493). Kind of test: Inhibitory activity against baculovirus expressed Cyclin dependent kinase 1-cyclinB. The class given is protein-complex assay.
Test [2] concerns the target Cyclin-dependent kinase 2/cyclin E (Homo sapiens, UniProt P24941). As to the kind of experiment: Inhibitory activity against baculovirus expressed Cyclin dependent kinase 2-cyclinE. In kind it is protein-complex assay.
In test [3] the target is Cyclin-dependent kinase 4/cyclin D1 (Homo sapiens, UniProt P11802). Kind of test: Inhibitory activity against baculovirus expressed Cyclin dependent kinase 4-cyclinD1. In kind it is protein-complex assay.
Chain of Cyclin-dependent kinase 4/cyclin D1 (P11802 whole entry): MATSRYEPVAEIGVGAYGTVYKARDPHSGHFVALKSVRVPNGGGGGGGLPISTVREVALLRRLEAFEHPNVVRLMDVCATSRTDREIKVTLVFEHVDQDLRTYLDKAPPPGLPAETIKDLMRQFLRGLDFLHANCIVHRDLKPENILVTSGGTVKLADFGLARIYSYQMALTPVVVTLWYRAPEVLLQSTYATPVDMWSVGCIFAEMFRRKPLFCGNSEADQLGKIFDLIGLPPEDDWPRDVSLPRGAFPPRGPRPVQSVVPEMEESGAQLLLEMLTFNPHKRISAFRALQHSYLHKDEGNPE
Chain of Cyclin-dependent kinase 4/cyclin D1 (P24385 whole entry, further chain): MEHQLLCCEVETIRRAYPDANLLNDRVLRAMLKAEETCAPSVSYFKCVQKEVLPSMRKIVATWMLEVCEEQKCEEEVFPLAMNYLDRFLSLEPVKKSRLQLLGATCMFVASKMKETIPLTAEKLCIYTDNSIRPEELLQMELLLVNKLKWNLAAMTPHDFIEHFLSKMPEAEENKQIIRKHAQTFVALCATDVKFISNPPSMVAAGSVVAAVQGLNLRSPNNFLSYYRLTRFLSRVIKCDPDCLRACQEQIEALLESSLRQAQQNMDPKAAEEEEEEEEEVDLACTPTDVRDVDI
For the next test, the target named is Protein kinase C (PKC). As to the kind of experiment: Inhibition of Protein kinase C. The class given is protein assay.
Test [4] addresses cAMP-dependent protein kinase (PKA) (Homo sapiens, UniProt P22694+P17612+P22612). Kind of test: Inhibition of Protein kinase A (PKA). In kind it is protein assay.
Test [5] concerns A2780. Kind of test: Inhibition of A2780 / DDP-S human ovarian carcinoma cell proliferation. The class given is functional, cell-based.
The subject of another test is A549. As to the kind of experiment: Inhibition of A549 human lung carcinoma cell proliferation. The class given is functional, cell-based.
Another test deals with A-431. As to the kind of experiment: Inhibition of A431 human squamous cell carcinoma cell proliferation. The class given is functional, cell-based.
Test [6] concerns A2780. Kind of test: Inhibition of A2780 / DDP-R human ovarian carcinoma cell proliferation. In kind it is functional, cell-based.
Test [7] relates to A2780. Kind of test: Inhibition of A2780 / TAX-R human ovarian carcinoma cell proliferation. The class given is functional, cell-based.
Test [8] deals with A2780. Kind of test: Inhibition of A2780 / TAX-S human ovarian carcinoma cell proliferation. The class given is functional, cell-based.
Another test concerns ABAE. As to the kind of experiment: Inhibition of ABAE […] cell proliferation. The class given is functional, cell-based.
The subject of another test is Caco-2. As to the kind of experiment: Inhibition of CACO-2 human colon carcinoma cell proliferation. In kind it is functional, cell-based.
The target in test [9] is Cyclin-dependent kinase 2 (Homo sapiens) (UniProt P24941). Kind of test: Percentage A2780 cells in sub-G1 after 24 hr r at 20 nM (IC50). The class given is functional, cell-based.
The target is the same in test [10]. Kind of test: Percentage A2780 cells in S-phase after 24 hr r at 20 nM (IC50). In kind it is functional, cell-based.
The target is the same in test [11]. As to the kind of experiment: Percentage A2780 cells in G1 after 24 hr r at 295 nM (IC90). In kind it is functional, cell-based.
The target is the same in test [12]. Kind of test: Percentage A2780 cells in G2/M after 24 hr r at 295 nM (IC90). In kind it is functional, cell-based.
Test [13] has the same target. Kind of test: Percentage A2780 cells in S-phase after 24 hr r at 295 nM (IC90). In kind it is functional, cell-based.
Test [14] has the same target. As to the kind of experiment: Apoptotic A2780 cells after 24 hr r at 295 nM (IC90). In kind it is functional, cell-based.
Test [15] shares this target. Kind of test: Percentage A2780 cells in sub-G1 after 24 hr r at 295 nM (IC90). In kind it is functional, cell-based.
For test [16] the target is unchanged. As to the kind of experiment: Percentage A2780 cells in G1 after 24 hr r at 20 nM (IC50). The class given is functional, cell-based.
For test [17] the target is unchanged. Kind of test: Percentage A2780 cells in G2/M after 24 hr r at 20 nM (IC50). The class given is functional, cell-based.
Test [18] has the same target. As to the kind of experiment: Apoptotic A2780 cells after 24 hr r at 20 nM (IC50). The class given is functional, cell-based.
Test [19] concerns the target Receptor tyrosine-protein kinase erbB-2 (Homo sapiens, UniProt P04626). As to the kind of experiment: Inhibition of HER2 kinase.
Test [20] relates to HCT-116. As to the kind of experiment: Inhibition of HCT116 human colon carcinoma cell proliferation. The class given is functional, cell-based.
The test system of test [21] is HCT-116. As to the kind of experiment: Inhibition of HCT116 / VP35 human colon carcinoma cell proliferation. The class given is functional, cell-based.
The test system of test [22] is HCT-116. Kind of test: Inhibition of HCT116 / VM46 human colon carcinoma cell proliferation. The class given is functional, cell-based.
In a further test the test system is HL-60. As to the kind of experiment: Inhibition of HL60 human leukemia cell proliferation. The class given is functional, cell-based.
Another test concerns HS27. As to the kind of experiment: Inhibition of Hs 27 human fibroblast cell proliferation. The class given is functional, cell-based.
Test [23] is described as follows: Inhibition of Insulin-like growth factor receptor.
A further test concerns K562. As to the kind of experiment: Inhibition of K562 human leukemia cell proliferation. The class given is functional, cell-based.
The subject of the next test is LS174T. As to the kind of experiment: Inhibition of LS174T human colon carcinoma cell proliferation. In kind it is functional, cell-based.
A further test relates to MCF7. Kind of test: Inhibition of MCF-7 human breast carcinoma cell proliferation. The class given is functional, cell-based.
For a further test, the system named is MLF. Kind of test: Inhibition of MLF mouse lung fibroblast cell proliferation. The class given is functional, cell-based.
For a further test, the system named is LX-1. As to the kind of experiment: Inhibition of LX-1 human lung carcinoma proliferation. In kind it is functional, cell-based.
Another test deals with MIP. Kind of test: Inhibition of MIP human colon carcinoma cell line. In kind it is functional, cell-based.
Another test relates to OVCAR-3. Kind of test: Inhibition of OVCAR-3 human ovarian carcinoma cell proliferation. The class given is functional, cell-based.
Another test relates to PC-3. As to the kind of experiment: Inhibition of PC3 human prostate carcinoma cell proliferation. The class given is functional, cell-based.
Another test relates to SK-BR-3. As to the kind of experiment: Inhibition of SKBR-3 human breast carcinoma cell proliferation. The class given is functional, cell-based.
Test [24] concerns the target T1, Tyrosine-protein kinase ITK/TSK (Homo sapiens, UniProt Q08881).
T1 sequence (Q08881 whole entry): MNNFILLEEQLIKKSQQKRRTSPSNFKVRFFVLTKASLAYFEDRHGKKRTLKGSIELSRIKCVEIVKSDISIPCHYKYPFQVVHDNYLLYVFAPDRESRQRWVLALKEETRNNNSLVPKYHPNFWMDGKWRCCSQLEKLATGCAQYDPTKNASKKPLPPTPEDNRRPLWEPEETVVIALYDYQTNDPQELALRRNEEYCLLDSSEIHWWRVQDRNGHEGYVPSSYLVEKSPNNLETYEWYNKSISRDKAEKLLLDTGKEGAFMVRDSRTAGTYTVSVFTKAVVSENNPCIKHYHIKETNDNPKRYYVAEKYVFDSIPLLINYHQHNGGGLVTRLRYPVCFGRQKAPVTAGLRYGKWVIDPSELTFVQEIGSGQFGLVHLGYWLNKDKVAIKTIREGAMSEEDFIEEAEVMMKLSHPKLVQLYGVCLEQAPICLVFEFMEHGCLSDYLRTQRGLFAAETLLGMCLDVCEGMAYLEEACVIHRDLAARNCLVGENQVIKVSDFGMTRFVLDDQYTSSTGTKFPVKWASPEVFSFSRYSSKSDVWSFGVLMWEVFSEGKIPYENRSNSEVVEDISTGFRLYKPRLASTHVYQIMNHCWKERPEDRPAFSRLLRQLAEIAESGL
Kind of test: Inhibition of tyrosine kinase EMT.

The next test concerns M109. Kind of test: Inhibition of M109 mouse lung carcinoma cell proliferation. In kind it is functional, cell-based.
In a further test the test system is CCRF-CEM. Kind of test: Inhibition of CCRF-CEM human leukemia cell proliferation. In kind it is functional, cell-based.
Test [25] has as its system A2780. Kind of test: cells. Particulars: Homo sapiens.
Description: Cytotoxic activity against A2780 human ovarian carcinoma cell line

Chain of Receptor tyrosine-protein kinase erbB-2 (P04626 whole entry): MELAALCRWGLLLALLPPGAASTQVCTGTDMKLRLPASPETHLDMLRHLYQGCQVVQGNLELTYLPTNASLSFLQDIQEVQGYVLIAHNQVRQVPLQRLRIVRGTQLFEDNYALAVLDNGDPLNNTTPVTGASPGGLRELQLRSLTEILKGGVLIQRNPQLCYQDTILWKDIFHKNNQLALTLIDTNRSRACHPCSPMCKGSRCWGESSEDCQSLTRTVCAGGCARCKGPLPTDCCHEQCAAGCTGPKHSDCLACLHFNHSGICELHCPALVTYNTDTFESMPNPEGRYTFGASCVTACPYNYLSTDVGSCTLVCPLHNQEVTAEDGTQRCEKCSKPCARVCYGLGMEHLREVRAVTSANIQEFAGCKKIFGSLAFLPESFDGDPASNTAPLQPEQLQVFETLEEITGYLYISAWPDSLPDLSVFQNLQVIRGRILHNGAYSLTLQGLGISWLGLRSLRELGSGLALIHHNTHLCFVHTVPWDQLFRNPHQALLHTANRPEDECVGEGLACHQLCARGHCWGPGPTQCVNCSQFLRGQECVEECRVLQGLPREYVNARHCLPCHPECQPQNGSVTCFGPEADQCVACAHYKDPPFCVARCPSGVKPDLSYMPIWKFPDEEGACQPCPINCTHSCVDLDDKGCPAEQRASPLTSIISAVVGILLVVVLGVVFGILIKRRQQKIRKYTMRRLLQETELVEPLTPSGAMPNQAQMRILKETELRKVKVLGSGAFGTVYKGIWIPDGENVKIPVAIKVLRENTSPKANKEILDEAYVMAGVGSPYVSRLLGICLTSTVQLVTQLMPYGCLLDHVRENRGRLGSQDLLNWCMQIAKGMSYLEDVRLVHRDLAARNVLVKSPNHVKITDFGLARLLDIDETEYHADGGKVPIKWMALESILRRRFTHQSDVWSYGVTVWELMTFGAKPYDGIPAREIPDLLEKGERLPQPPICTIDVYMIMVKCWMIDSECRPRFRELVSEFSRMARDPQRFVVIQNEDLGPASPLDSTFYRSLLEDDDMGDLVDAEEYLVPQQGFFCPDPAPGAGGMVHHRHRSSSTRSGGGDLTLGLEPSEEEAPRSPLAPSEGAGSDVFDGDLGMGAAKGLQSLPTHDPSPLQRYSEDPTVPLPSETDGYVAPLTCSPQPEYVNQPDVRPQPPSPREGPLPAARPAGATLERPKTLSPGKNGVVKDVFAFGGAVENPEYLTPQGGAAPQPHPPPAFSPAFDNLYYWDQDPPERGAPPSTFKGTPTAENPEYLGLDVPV

As for `CCOC(=O)CSc1cnc(NC(C)=O)s1`, the IC50 is 1870 nM in [1]; 170 nM in test [2]; 23000 nM in test [3]; more than 50000 nM against Protein kinase C (PKC); more than 50000 nM in test [4].

On to `CCc1cnc(CSc2cnc(NC(C)=O)s2)o1`, for which the IC50 turned out to be 1050 nM with A2780 [5]; 1870 nM in the test on A549; 960 nM with A-431; 1420 nM with A2780 [6]; 1140 nM in the test with A2780 [7]; 700 nM in the test on A2780 [8]. The IC50 was 1100 nM with ABAE; 1610 nM in the test with Caco-2; 300 nM in [1]; 20 nM in test [2]; 2250 nM in test [3]; more than 25000 nM in [19]. Also, the IC50 is 480 nM in the test on HCT-116 [20]; 450 nM with HCT-116 [21]; 530 nM with HCT-116 [22]; 1400 nM with HL-60; 860 nM with HS27; more than 25000 nM in test [23]. In addition, the IC50 in the test on K562 was found to be 3230 nM; in the test with LS174T it was 1710 nM; with MCF7, 1470 nM; in the test on MLF, 1860 nM; in the test with LX-1, 1900 nM; in the test with MIP it was 1790 nM. In addition, the IC50 in the test with OVCAR-3 is 1210 nM; in the test with PC-3 it was 1060 nM; in the test on SK-BR-3, 1640 nM; in test [24], more than 10000 nM; in the test on M109 it was 2100 nM; in the test on CCRF-CEM it was 1450 nM. Further, half-maximal inhibition in the test on A2780 [25] (IC50) was put at 1400 nM. Moreover, the Cell cycle in [9] came out at 2%; in [10], 11%; in test [11], 62%; in [12], 25%; in test [13], 6%; in [14] it was 16%. In addition, the Cell cycle in test [15] was 7%; in test [16], 58%; in [17], 29%; in [18], 6%.

Broadly, the IC50 is the point on the concentration scale where inhibition reaches its midpoint. High values mean lower potency, low ones higher potency.
